Data as given in patent publication US20220008298A1, “OLEOGELS IN UV ABSORBER COMPOSITIONS” (BASF SE, priority 2011, published 2022).

Legend:
[1] = Log P octanol/water of the oil; type: physicochemical
Text: (§1) The smaller the interfacial tension of the oil towards water, the more polar it is. This is in line with the values of Log Poctanol/water.

[2] = interfacial tension of the oil to water; type: physicochemical
Text: as §1

| Log Poctanol/water [1] | Interf. tension to water, γ [2] [mN/m] | SMILES |
| --- | --- | --- |
| 3.9 | 14.3 | CCCCOC(=O)CCCCC(=O)OCCCC [Dibutyl Adipate] |
| 6.8 | 29.1 | CCCCC(CC)COC(=O)OCC(CC)CCCC (stereo not shown) [Diethylhexyl Carbonate] |
